{
  "source": "patent US20230364118A1",
  "about": "“RIBITOL TREATMENT” (priority 2020, published 2023)",
  "origin": "cited, not measured here",
  "conditions": "rabbits; cited from earlier work",
  "data": [
    {"smiles": "O=C[C@H](O)[C@H](O)[C@H](O)CO", "note": "[D-ribose]", "values": [
      {"measurement": "half-life", "value": "14 to 24", "unit": "min"}
    ]}
  ]
}
